Results reported in patent US12508273B2, “Beta-1,3′-galactosyllactose for the treatment of gut barrier function diseases” (N.V. Nutricia, priority 2019, dated 2025).

Tests used:
Assay type in all cases: cell-based, human
[1] = test system: IL-8 (CXCL8) release by Caco-2 cells; assay: DON-induced IL-8 (CXCL8) release by Caco-2 cells, ELISA; conditions: DON alone 4.2 M, 24 h
Experimental: (§1) Caco-2 cell monolayers were thus grown in a transwell system, which is a model for intestinal barrier function. The monolayers were pretreated for 24 h with different GLs, including beta3′-GL, alpha3′-GL, beta4′-GL and beta6′-GL in a concentration of 0.75 wt % of the GL, before being exposed to the fungal toxin deoxynivalenol (DON), which is a trigger and model compound to impair intestinal barrier. DON was diluted to a final concentration of […] in complete cell medium and added to the apical side as well as to the basolateral side of the transwell inserts. […] Incubation with DON was 24 h.
(§2) Measurements of the transepithelial electrical resistance (TEER) and lucifer yellow (LY) permeability were conducted to investigate barrier integrity. […] Results are expressed as a percentage of the initial value. For paracellular tracer flux assay the membrane impermeable lucifer yellow (LY) (Sigma, St Luis, MO, USA) was added in a concentration of 16 μg/ml to the apical compartment in the transwell plate for 4 h, and the paracellular flux was determined by measuring the fluorescence intensity in the basolateral compartment with a spectrophotofluorimeter (FLUOstar Optima, BMG Labtech, Offenburg, Germany) set at excitation and emission wavelengths of 410 and 520 nm, respectively. […]

Caco-2 cells = assay: Viability of Caco-2 cells exposed to DON; conditions: DON 4.2 M in complete cell medium, apical and basolateral
Experimental: as §1

Caco-2 cell monolayer [2] = assay: Transepithelial electrical resistance (TEER) of Caco-2 monolayers after DON-induced impairment
Experimental: (§3) Caco-2 cells were used according to established methods. In brief: cells were cultured in Dulbecco's modified Eagle medium (DMEM) and seeded at a density of 0.3×10^5 cells into 0.3 cm^2 high pore density (0.4 μm) inserts with a polyethylene terephthalate membrane (BD Biosciences, Franklin Lakes, NJ, USA) placed in a 24-well plate. The Caco-2 cells were maintained in a humidified atmosphere of 95 air and 5% CO2 at 37° C. After 17-19 days of culturing, a confluent monolayer was obtained with a mean Transepithelial electrical resistance (TEER) exceeding 400 Ωcm^2 measured by a Millicell-Electrical Resistance System voltohm-meter (Millipore, Temecula, CA, USA).
as §1
Measurements of the transepithelial electrical resistance (TEER) and lucifer yellow (LY) permeability were conducted to investigate barrier integrity. For TEER measurements a Millicel-ERS voltohmmeter connected to a pair of chopsticks electrodes was used to measure the TEER values. Results are expressed as a percentage of the initial value. For paracellular tracer flux assay the membrane impermeable lucifer yellow (LY) (Sigma, St Luis, MO, USA) was added in a concentration of 16 μg/ml to the apical compartment in the transwell plate for 4 h, and the paracellular flux was determined by measuring the fluorescence intensity in the basolateral compartment with a spectrophotofluorimeter (FLUOstar Optima, BMG Labtech, Offenburg, Germany) set at excitation and emission wavelengths of 410 and 520 nm, respectively. Release of interleukin-8 (IL-8 or CXCL8), which is a typical marker for inflammation, was quantified in the medium of the apical side and the basolateral side of the Caco-2 transwell inserts in response to the treatments. CXCL8 concentrations were measured by using the human IL-8 ELISA assay (BD Biosciences, Pharmingem, San Diego, CA, USA) according to manufacturer's instructions. For more details on materials and methods see Akbari et al, 2016, Eur J Nutr. 56(5):1919-1930.
Barrier function experiments were performed in a similar way as in example 2 using the following concentrations of Vivinal GOS (VGOS): 0 (Control), 0.25 wt % (VGOS 0.25), 0.5 wt % (VGOS 0.5), 0.75 wt % (VGOS 0.75), 1 wt % (VGOS 1), 1.5 wt % (VGOS 1.5) and 2 wt % (VGOS 2). For TOS concentrations of 0.25 wt % (TOS 0.25) and 0.5 wt % (TOS 0.5) were tested.

Caco-2 cell monolayer [3] = assay: Lucifer yellow (LY) paracellular flux across Caco-2 monolayers after DON-induced impairment; conditions: GL 0.75 wt %, 24 h pretreatment, then DON 4.2 M 24 h; FIGS. 1C, 1D
Experimental: as §3, with “USA). […]” for “USA).”
as §2

[4] = GL 0.75 wt %, 24 h pretreatment, then DON 4.2 M 24 h

## CC1=C[C@H]2O[C@@H]3[C@H](O)C[C@](C)([C@@]2(CO)[C@H](O)C1=O)[C@]31CO1 [DON, deoxynivalenol]
[1]
  CXCL8 (IL-8) release: increased CXCL8 (IL-8) release
Caco-2 cells
  viability of the Caco-2 cells: did not affect the viability

## OC[C@H]1O[C@H](O[C@H]2[C@@H](O)[C@@H](CO)O[C@@H](O[C@H]3[C@H](O)[C@@H](O)C(O)O[C@@H]3CO)[C@@H]2O)[C@H](O)[C@@H](O)[C@H]1O (stereo partly drawn) [alpha3′-GL, Gal (alpha 1-3)-Gal (beta 1-4)-Glc]
Caco-2 cell monolayer [2]; [4]
  effect on DON-induced loss of epithelial barrier integrity (TEER and LY flux): did not prevent the DON-induced disrupted intestinal barrier

## OC[C@H]1O[C@@H](O[C@@H]2[C@H](O)[C@@H](O)[C@H](O[C@H]3[C@H](O)[C@@H](O)C(O)O[C@@H]3CO)O[C@@H]2CO)[C@H](O)[C@@H](O)[C@H]1O (stereo partly drawn) [beta4′-GL, Gal (beta 1-4)-Gal (beta 1-4)-Glc]
Caco-2 cell monolayer [2]; [4]
  effect on DON-induced loss of epithelial barrier integrity (TEER and LY flux): did not show a significant effect

## OC[C@H]1O[C@@H](OC[C@H]2O[C@@H](O[C@H]3[C@H](O)[C@@H](O)C(O)O[C@@H]3CO)[C@H](O)[C@@H](O)[C@H]2O)[C@H](O)[C@@H](O)[C@H]1O (stereo partly drawn) [beta6′-GL, Gal (beta 1-6)-Gal (beta 1-4)-Glc]
Caco-2 cell monolayer [2]; [4]
  effect on DON-induced loss of epithelial barrier integrity (TEER and LY flux): did not show a significant effect

## Gal (beta 1-3)-Gal (beta 1-4)-Glc [beta3′-GL]
Caco-2 cell monolayer [3]
  LY flux after DON challenge: reduction in the DON-affected LY flux
Caco-2 cell monolayer [2]; Caco-2, DON challenge, beta3′-GL as part of TOS
  concentration of beta3′-GL in TOS at which the barrier effect is observed: lower than 0.17 wt %
Caco-2 cell monolayer [2]; [4]
  effect on DON-induced loss of epithelial barrier integrity (TEER and LY flux): prevented the DON-induced loss of epithelial barrier integrity
Caco-2 cell monolayer [2]; GL 0.75 wt %, 24 h pretreatment, then DON 4.2 M 24 h, FIGS. 1A, 1B
  TEER after DON challenge: increased TEER values
Caco-2 cell monolayer [2]; GL 0.75 wt %, 24 h pretreatment, then DON 4.2 M 24 h, listed as beta1,3′-galactosyllactose
  effect on DON-induced loss of epithelial barrier integrity (TEER and LY flux): prevented loss of epithelial barrier integrity to a much higher extent than other galactosyl-lactoses
